Our source for the IC50 values is patent US10343992B2, “1-cyano-pyrrolidine compounds as USP30 inhibitors” (MISSION THERAPEUTICS LIMITED, priority 2015, dated 2019).

As usually defined, the IC50 is the point on the concentration scale where inhibition reaches its midpoint.

The target of the test is USP30 (Homo sapiens (Human), UniProt Q70CQ3). The test is described as follows: USP30 biochemical FP or FI IC50 assay. The following applies: read-out: IC50 range. An outline of the steps: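 Human USP30 preincubated 30 min at room temperature with compound (8-point series, 100 µM top final) in Tris pH 7.5, Tween 20, BSA, 5 mM β-mercaptoethanol, in duplicate. FP format: 50 nM TAMRA-peptide–isopeptide-ubiquitin substrate, ex 540/em 590. FI format: 100 nM ubiquitin-rhodamine 110, ex 487/em 535. Both read at 0 and after 2 h at room temperature.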
USP30, sequence (Q70CQ3 57-517): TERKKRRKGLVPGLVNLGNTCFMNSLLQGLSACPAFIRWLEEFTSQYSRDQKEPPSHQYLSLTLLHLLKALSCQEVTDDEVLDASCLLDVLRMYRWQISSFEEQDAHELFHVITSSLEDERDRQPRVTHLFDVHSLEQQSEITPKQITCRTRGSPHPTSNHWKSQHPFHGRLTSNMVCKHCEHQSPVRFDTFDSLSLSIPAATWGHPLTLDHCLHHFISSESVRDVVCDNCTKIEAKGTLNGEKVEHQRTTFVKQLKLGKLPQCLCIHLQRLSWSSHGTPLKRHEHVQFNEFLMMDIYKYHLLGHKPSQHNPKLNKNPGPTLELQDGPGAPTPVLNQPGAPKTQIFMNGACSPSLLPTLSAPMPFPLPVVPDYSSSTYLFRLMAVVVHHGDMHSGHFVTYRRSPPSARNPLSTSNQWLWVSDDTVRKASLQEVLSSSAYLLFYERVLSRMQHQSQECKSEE
Turning to `CN(C(=O)N1CC(Oc2ccccc2)C1)[C@@H]1CCN(C#N)C1` [Example 89, (R)—N-(1-cyanopyrrolidin-3-yl)-N-methyl-3-phenoxyazetidine-1-carboxamide], the IC50 fell in the range of 100 to 1000 nM.
With `N#CN1CC[C@@H](NC(=O)c2cc(-c3ccccc3)ccn2)C1` [Example 30, (R)-N-(1-cyanopyrrolidin-3-yl)-4-phenylpicolinamide] the figure was 100 to 1000 nM; with `COc1ccccc1-c1cc(C(=O)N[C@@H]2CCN(C#N)C2)n[nH]1` [Example 97, (R)-N-(1-cyanopyrrolidin-3-yl)-5-(2-methoxyphenyl)-1H-pyrazole-3-carboxamide], under 100 nM; with `Cc1cc(-c2ccc(NC(=O)N3CC[C@@H]4CN(C#N)C[C@@H]43)nc2)ccn1` [Example 244, (3aR,6aR)-5-cyano-N-(2′-methyl-[3,4′-bipyridin]-6-yl)hexahydropyrrolo[3,4-b]pyrrole-1(2H)-carboxamide], under 100 nM.
Consider `N#CN1CC[C@@H](NC(=O)c2ccc(-c3ccnc(C(F)(F)F)n3)cc2F)C1` [Example 183, (R)-N-(1-cyanopyrrolidin-3-yl)-2-fluoro-4-(2-(trifluoromethyl)pyrimidin-4-yl)benzamide], for which the IC50 fell in the range of 100 to 1000 nM.
On to `Cc1cc(-c2cccc(NC(=O)N3CC[C@@H]4CN(C#N)C[C@@H]43)c2)ccn1` [Example 241, (3aR,6aR)-5-cyano-N-(3-(2-methylpyridin-4-yl)phenyl)hexahydropyrrolo[3,4-b]pyrrole-1(2H)-carboxamide], for which the half-maximal inhibitory concentration (IC50) was under 100 nM.
With `CCN(C(=O)c1ccc(-c2cnn(C)c2)c(F)c1)[C@@H]1CCN(C#N)C1` [Example 206, (R)-N-(1-cyanopyrrolidin-3-yl)-N-ethyl-3-fluoro-4-(1-methyl-1H-pyrazol-4-yl)benzamide] the figure was 100 to 1000 nM.
With `Cn1cc(-c2cc(F)c(C(=O)N[C@@H]3CCN(C#N)C3)c(F)c2)cn1` [Example 113, (R)-N-(1-cyanopyrrolidin-3-yl)-2,6-difluoro-4-(1-methyl-1H-pyrazol-4-yl)benzamide], the concentration for half-maximal inhibition (IC50) lay within 100 to 1000 nM.
As to `CO[C@@H]1CCN(c2ccc(C(=O)N[C@H]3CN(C#N)C[C@@H]3C)c(F)c2)C1` (racemic) [Example 92, N-((trans)-1-cyano-4-methylpyrrolidin-3-yl)-2-fluoro-4-((R)-3-methoxypyrrolidin-1-yl)benzamide], the IC50 was 100 to 1000 nM.
With `Cn1cc(-c2ccn3c(C(=O)N[C@@H]4CCN(C#N)C4)cnc3c2)cn1` [Example 159, (R)-N-(1-cyanopyrrolidin-3-yl)-7-(1-methyl-1H-pyrazol-4-yl)imidazo[1,2-a]pyridine-3-carboxamide] the figure was 100 to 1000 nM; with `COc1cc(C(=O)N[C@@H]2CCN(C#N)C2)ccc1-c1cnn(C)c1` [Example 2, (R)—N-(1-cyanopyrrolidin-3-yl)-3-methoxy-4-(1-methyl-1H-pyrazol-4-yl)benzamide], under 100 nM.
Consider `N#CN1C[C@H]2CCN(C(=O)N3CC(c4ccccc4)C3)[C@H]2C1` [Example 193, (3aR,6aR)-1-(3-phenylazetidine-1-carbonyl)hexahydropyrrolo[3,4-b]pyrrole-5(1H)-carbonitrile], for which the half-maximal inhibitory concentration (IC50) is 100 to 1000 nM.
Then `COc1ccc(C2CN(C(=O)N[C@@H]3CCN(C#N)C3)C2)cc1` [Example 190, (R)-N-(1-cyanopyrrolidin-3-yl)-3-(4-methoxyphenyl)azetidine-1-carboxamide], with under 100 nM; and `N#CN1CCC(NC(=O)Cc2ccc(-c3ccccc3)cc2)C1` (racemic) [Example 16, 2-([1,1′-biphenyl]-4-yl)-N-(1-cyanopyrrolidin-3-yl)acetamide], with 1000 to 10000 nM; and `CO[C@H]1CN(C#N)C[C@@H]1N(C)C(=O)c1ccc(-c2cnn(C)c2)cc1` (relative stereo) [Example 178, N-((trans)-1-cyano-4-methoxypyrrolidin-3-yl)-N-methyl-4-(1-methyl-1H-pyrazol-4-yl)benzamide], with 100 to 1000 nM.
For `Cc1nn(C)cc1-c1ccc(C(=O)N[C@@H]2CCN(C#N)C2)nc1` [Example 179, (R)-N-(1-cyanopyrrolidin-3-yl)-5-(1,3-dimethyl-1H-pyrazol-4-yl)picolinamide], the 50% inhibitory concentration (IC50) was 100 to 1000 nM.
For `COc1cc(-c2cnn(C)c2)ccc1C(=O)N[C@@H]1CCN(C#N)C1` [Example 110, (R)-N-(1-cyanopyrrolidin-3-yl)-2-methoxy-4-(1-methyl-1H-pyrazol-4-yl)benzamide], the IC50 lay within 100 to 1000 nM.
As for `CN(C(=O)Nc1ccc(Cl)cc1Cl)C1CCN(C#N)C1` (stereo not drawn) [Example 260, 1-(1-cyanopyrrolidin-3-yl)-3-(2,4-dichlorophenyl)-1-methylurea], the IC50 was 100 to 1000 nM.
For `N#CN1CC[C@@H](NC(=O)N2CC(OCc3ccccc3)(c3ccccc3)C2)C1` [Example 238, (R)-3-(benzyloxy)-N-(1-cyanopyrrolidin-3-yl)-3-phenylazetidine-1-carboxamide], the IC50 is under 100 nM.
With `CCn1cc(-c2cnc(C(=O)N[C@@H]3CCN(C#N)C3)cc2C)cn1` [Example 132, (R)-N-(1-cyanopyrrolidin-3-yl)-5-(1-ethyl-1H-pyrazol-4-yl)-4-methylpicolinamide] the figure was 100 to 1000 nM.
Then `N#CN1CC[C@@H](N2CCN(c3cccc(N4CCOCC4)c3)C2=O)C1` [Example 210, (R)-3-(3-(3-morpholinophenyl)-2-oxoimidazolidin-1-yl)pyrrolidine-1-carbonitrile], with 100 to 1000 nM; and `Cc1nc2nccc-2c(-c2ccc(C(=O)N[C@@H]3CCN(C#N)C3)c(F)c2)[nH]1` [Example 184, (R)-N-(1-cyanopyrrolidin-3-yl)-2-fluoro-4-(2-methyl-3H-pyrrolo[2,3-d]pyrimidin-4-yl)benzamide], with under 100 nM.
Then `N#CN1CCC(NC(=O)c2ccc(-c3ccccc3Cl)cc2)C1` (stereo not drawn) [Example 3, 2′-chloro-N-(1-cyanopyrrolidin-3-yl)-[1,1′-biphenyl]-4-carboxamide], with under 100 nM.
`N#CN1CC[C@@H](NC(=O)c2cc(-c3ccc(F)cc3F)no2)C1` [Example 272, (R)-N-(1-cyanopyrrolidin-3-yl)-3-(2,4-difluorophenyl)isoxazole-5-carboxamide]: the IC50 was under 100 nM.
With `Cn1cc(-c2ccc3c(c2)c(F)c(C(=O)N[C@@H]2CCN(C#N)C2)n3C)cn1` [Example 232, (R)-N-(1-cyanopyrrolidin-3-yl)-3-fluoro-1-methyl-5-(1-methyl-1H-pyrazol-4-yl)-1H-indole-2-carboxamide] the figure was under 100 nM; with `N#CN1CCC(NC(=O)c2ccc(N3CCC(c4ccncc4)CC3)nc2)C1` (racemic) [Example 23, N-(1-cyanopyrrolidin-3-yl)-6-(4-(pyridin-4-yl)piperidin-1-yl)nicotinamide], 100 to 1000 nM; with `CN(C(=O)Nc1cn2ccccc2n1)[C@@H]1CCN(C#N)C1` [Example 50, (R)-1-(1-cyanopyrrolidin-3-yl)-3-(imidazo[1,2-a]pyridin-2-yl)-1-methylurea], 100 to 1000 nM.
As to `N#CN1C[C@H](NC(=O)c2cnc(-c3ccccc3Cl)s2)[C@@H](O)C1` (relative stereo) [Example 93, 2-(2-chlorophenyl)-N-((trans)-1-cyano-4-hydroxypyrrolidin-3-yl) thiazole-5-carboxamide], the IC50 is under 100 nM.
Then `N#CN1CCC(NC(=O)C2CC(=O)N(Cc3ccc(F)cc3F)C2)C1` (racemic) [Example 10, N-(1-cyanopyrrolidin-3-yl)-1-(2,4-difluorobenzyl)-5-oxopyrrolidine-3-carboxamide], with 100 to 1000 nM; and `N#CN1CC[C@@H](NC(=O)c2ccc(N3CCOCC3)c(F)c2)C1` [Example 32, (R)-N-(1-cyanopyrrolidin-3-yl)-3-fluoro-4-morpholinobenzamide], with 100 to 1000 nM; and `N#CN1CC[C@@H](NC(=O)c2cc(-c3ccccc3F)[nH]n2)C1` [Example 98, (R)-N-(1-cyanopyrrolidin-3-yl)-5-(2-fluorophenyl)-1H-pyrazole-3-carboxamide], with under 100 nM.
Then `CN(C(=O)c1ccc(-c2cnn(C)c2)c(F)c1)[C@@H]1CCN(C#N)C1` [Example 87, (R)-N-(1-cyanopyrrolidin-3-yl)-3-fluoro-N-methyl-4-(1-methyl-1H-pyrazol-4-yl)benzamide], with 100 to 1000 nM.
With `N#CN1CC[C@@H](NC(=O)c2cc(-c3ccccn3)[nH]n2)C1` [Example 96, (R)-N-(1-cyanopyrrolidin-3-yl)-5-(pyridin-2-yl)-1H-pyrazole-3-carboxamide] the figure was 100 to 1000 nM; with `Cn1cc(-c2ccc(C(=O)N[C@@H]3CCN(C#N)C3)cn2)cn1` [Example 111, (R)-N-(1-cyanopyrrolidin-3-yl)-6-(1-methyl-1H-pyrazol-4-yl)nicotinamide], 100 to 1000 nM; with `N#CN1CC[C@@H](NC(=O)c2ccc(N3CCOCC3)nc2)C1` [Example 99, (R)-N-(1-cyanopyrrolidin-3-yl)-6-morpholinonicotinamide], 100 to 1000 nM.
As to `Cc1nccc(-c2ccc(C(=O)N[C@@H]3CCN(C#N)C3)c(F)c2)n1` [Example 105, (R)-N-(1-cyanopyrrolidin-3-yl)-2-fluoro-4-(2-methylpyrimidin-4-yl)benzamide], the IC50 was under 100 nM.
Then `N#CN1CC[C@@H](NC(=O)c2cc(-c3ccncc3)no2)C1` [Example 64, (R)—N-(1-cyanopyrrolidin-3-yl)-3-(pyridin-4-yl)isoxazole-5-carboxamide], with 100 to 1000 nM; and `CN(C(=O)c1cc2cc(-c3cnn(C)c3)ncc2[nH]1)[C@@H]1CCN(C#N)C1` [Example 263, (R)-N-(1-cyanopyrrolidin-3-yl)-N-methyl-5-(1-methyl-1H-pyrazol-4-yl)-1H-pyrrolo[2,3-c]pyridine-2-carboxamide], with 100 to 1000 nM; and `N#CN1C[C@H]2CCN(C(=O)c3cc(-c4ccccc4)n[nH]3)[C@H]2C1` (racemic) [Example 52, rac-(3aR,6aR)-1-(3-phenyl-1H-pyrazole-5-carbonyl)hexahydropyrrolo[3,4-b]pyrrole-5(1H)-carbonitrile], with 100 to 1000 nM.
